Patent publication US20230167127A1, “COMPOUNDS AND THEIR USE IN THE TREATMENT OF BACTERIAL INFECTION” (Hoffmann-La Roche Inc., priority 2020, published 2023)
Counter-ions that a name gives are not always drawn.

Tested on: Escherichia coli ATCC 25922
Test: 50% growth inhibitory concentration (IC50) determination, Iso-Sensitest broth dilution
Assay type: cell-based
Settings: Escherichia coli, ATCC25922, 16 h, strain Escherichia coli ATCC 25922; 10-point broth dilution, optical density at 600 nm over 16 h; read-out: Escherichia coli growth inhibition IC50
In short: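 10-point twofold Iso-Sensitest broth dilution (e.g. 50 to 0.097 μM final) with DMSO stocks, incubated at 35±2° C. Growth followed by OD 600 nm every 20 min over 16 h; IC50 derived from growth inhibition during logarithmic phase.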

SMILES | IC50 [µM]
Cc1ncc(F)c2c1CC(C(C)NCC[C@H]1CN(c3cnc4c(n3)NC(=O)CO4)C(=O)O1)C2 (stereo partly drawn) [Example 330, 6-[(5S)-5-[2-[1-(4-fluoro-1-methyl-6,7-dihydro-5H-cyclopenta[c]pyridin-6-yl)ethylamino]ethyl]-2-oxo-1,3-oxazolidin-3-yl]-4H-pyrazino[2,3-b][1,4]oxazin-3-one; formic acid] | < 0.0977
Cc1ncc(F)c2c1CC(C(C)NCC[C@@H]1CN(c3cnc4c(n3)NC(=O)CO4)C(=O)O1)C2 (some centres unmarked) [Example 331] | < 0.0977
Cc1ncc(F)c2c1CC(CNCCc1nn(-c3cnc4c(n3)NC(=O)CO4)c(=O)o1)C2 (centres unmarked) [Example 335, 6-[5-[2-[(4-fluoro-1-methyl-6,7-dihydro-5H-cyclopenta[c]pyridin-6-yl)methylamino]ethyl]-2-oxo-1,3,4-oxadiazol-3-yl]-4H-pyrazino[2,3-b][1,4]oxazin-3-one] | 0.225
CNC(=O)COc1ccc2c(c1F)CC(CN1CCC3(CC1)CN(c1cnc4c(n1)NC(=O)CO4)C(=O)O3)C2 (centres unmarked) [Example 336, 2-[[4-fluoro-2-[[2-oxo-3-(3-oxo-4H-pyrazino[2,3-b][1,4]oxazin-6-yl)-1-oxa-3,8-diazaspiro[4.5]decan-8-yl]methyl]-2,3-dihydro-1H-inden-5-yl]oxy]-N-methylacetamide] | < 0.0977
Cc1ncc2c(c1F)CC(CNCC[C@H]1CN(c3cnc4c(n3)NC(=O)CO4)C(=O)O1)C2 (stereo partly drawn) [Example 338, 6-[(5S)-5-[2-[(4-fluoro-3-methyl-6,7-dihydro-5H-cyclopenta[c]pyridin-6-yl)methylamino]ethyl]-2-oxo-1,3-oxazolidin-3-yl]-4H-pyrazino[2,3-b][1,4]oxazin-3-one] | < 0.0977
Cc1ncc2c(c1F)CC(CNCC[C@@H]1CN(c3cnc4c(n3)NC(=O)CO4)C(=O)O1)C2 (stereo partly drawn) [Example 339, 6-[(5R)-5-[2-[(4-fluoro-3-methyl-6,7-dihydro-5H-cyclopenta[c]pyridin-6-yl)methylamino]ethyl]-2-oxo-1,3-oxazolidin-3-yl]-4H-pyrazino[2,3-b][1,4]oxazin-3-one] | 0.145
Cc1ncc(F)c2c1CC(CNCCC1(C)CN(c3cnc4c(n3)NC(=O)CO4)C(=O)O1)C2 (centres unmarked) [Example 340, 6-[5-[2-[(4-fluoro-1-methyl-6,7-dihydro-5H-cyclopenta[e]pyridin-6-yl)methylamino]ethyl]-5-methyl-2-oxo-1,3-oxazolidin-3-yl]-4H-pyrazino[2,3-b][1,4]oxazin-3-one] | 0.358
N#Cc1cccc2c1CC(N1CCC(C3CN(c4cnc5c(n4)NC(=O)CO5)C(=O)O3)CC1)C2 (centres unmarked) [Example 349, 2-[4-[2-oxo-3-(3-oxo-4H-pyrazino[2,3-b][1,4]oxazin-6-yl)-1,3-oxazolidin-5-yl]piperidin-1-yl]-2,3-dihydro-1H-indene-4-carbonitrile] | < 0.0977
O=C1COc2ncc(N3CC(C4CCN(C5Cc6cccc(F)c6C5)CC4)OC3=O)nc2N1 (centres unmarked) [Example 350, 6-[5-[1-(4-fluoro-2,3-dihydro-1H-inden-2-yl)piperidin-4-yl]-2-oxo-1,3-oxazolidin-3-yl]-4H-pyrazino[2,3-b][1,4]oxazin-3-one] | < 0.0977
Cc1nc(C)c2c(c1F)CC(CNCCC1CN(c3cnc4c(n3)NC(=O)CO4)C(=O)O1)C2 (centres unmarked) [Example 352, 6-[5-[2-[(4-fluoro-1,3-dimethyl-6,7-dihydro-5H-cyclopenta[c]pyridin-6-yl)methylamino]ethyl]-2-oxo-1,3-oxazolidin-3-yl]-4H-pyrazino[2,3-b][1,4]oxazin-3-one; formic acid] | < 0.0977

Next, values leading:

IC50 [µM] | SMILES
0.184 | O=C1COc2ncc(N3CC(CCNCC4Cc5cc(OCCn6ccnc6)cc(F)c5C4)OC3=O)nc2N1 (centres unmarked) [Example 332, 6-[5-[2-[[4-fluoro-6-(2-imidazol-1-ylethoxy)-2,3-dihydro-1H-inden-2-yl]methylamino]ethyl]-2-oxo-1,3-oxazolidin-3-yl]-4H-pyrazino[2,3-b][1,4]oxazin-3-one]
< 0.0977 | CC(C)(N)COc1cc(F)c2c(c1)CC(CNCC[C@H]1CN(c3cnc4c(n3)NC(=O)CO4)C(=O)O1)C2 (stereo partly drawn) [Example 341, 6-[(5S)-5-[2-[[6-(2-amino-2-methylpropoxy)-4-fluoro-2,3-dihydro-1H-inden-2-yl]methylamino]ethyl]-2-oxo-1,3-oxazolidin-3-yl]-4H-pyrazino[2,3-b][1,4]oxazin-3-one; formic acid]
0.18 | CC(C)(N)COc1cc(F)c2c(c1)CC(CNCC[C@@H]1CN(c3cnc4c(n3)NC(=O)CO4)C(=O)O1)C2 (stereo partly drawn) [Example 342, 6-[(5R)-5-[2-[[6-(2-amino-2-methylpropoxy)-4-fluoro-2,3-dihydro-1H-inden-2-yl]methylamino]ethyl]-2-oxo-1,3-oxazolidin-3-yl]-4H-pyrazino[2,3-b][1,4]oxazin-3-one; formic acid]
0.617 | O=C1COc2ncc(N3CC(CCNCC4Cc5cc(OCCn6nccn6)cc(F)c5C4)OC3=O)nc2N1 (centres unmarked) [Example 343, 6-[5-[2-[[4-fluoro-6-(2-(triazol-2-yl)ethoxy]-2,3-dihydro-1H-inden-2-yl]methylamino]ethyl]-2-oxo-1,3-oxazolidin-3-yl]-4H-pyrazino[2,3-b][1,4]oxazin-3-one; formic acid]
0.202 | O=C1COc2ncc(N3CC(CCNCC4Cc5cc(OCCn6ccnn6)cc(F)c5C4)OC3=O)nc2N1 (centres unmarked) [Example 344, 6-[5-[2-[[4-fluoro-6-[2-(triazol-1-yl)ethoxy]-2,3-dihydro-1H-inden-2-yl]methylamino]ethyl]-2-oxo-1,3-oxazolidin-3-yl]-4H-pyrazino[2,3-b][1,4]oxazin-3-one; formic acid]
0.659 | O=C1COc2ncc(N3CC(CCNCC4Cc5cc(OCCN6C(=O)CCC6=O)cc(F)c5C4)OC3=O)nc2N1 (centres unmarked) [Example 345]
0.311 | O=C1COc2ncc(N3CC(CCNCC4Cc5cc(OCC(=O)NC6CC6)cc(F)c5C4)OC3=O)nc2N1 (centres unmarked) [Example 346, N-cyclopropyl-2-[[7-fluoro-2-[[2-[2-oxo-3-(3-oxo-4H-pyrazino[2,3-b][1,4]oxazin-6-yl)-1,3-oxazolidm-5-yl]ethylamino]methyl]-2,3-dihydro-1H-inden-5-yl]oxy]acetamide; formic acid]
0.175 | O=C1COc2ncc(N3CC(CCNCC4Cc5cc(OCCn6cnnn6)cc(F)c5C4)OC3=O)nc2N1 (centres unmarked) [Example 347, 6-[5-[2-[[4-fluoro-6-[2-(tetrazol-1-yl)ethoxy]-2,3-dihydro-1H-inden-2-yl]methylamino]ethyl]-2-oxo-1,3-oxazolidin-3-yl]-4H-pyrazino[2,3-b][1,4]oxazin-3-one; formic acid]
0.317 | O=C1COc2ncc(N3CC(CCNCC4Cc5cc(OCCn6ncnn6)cc(F)c5C4)OC3=O)nc2N1 (centres unmarked) [Example 348, 6-[5-[2-[[4-fluoro-6-[2-(tetrazol-2-yl)ethoxy]-2,3-dihydro-1H-inden-2-yl]methylamino]ethyl]-2-oxo-1,3-oxazolidin-3-yl]-4H-pyrazino[2,3-b][1,4]oxazin-3-one; formic acid]
0.144 | CC(O)COc1cc(F)c2c(c1)CC(CNCCC1CN(c3cnc4c(n3)NC(=O)CO4)C(=O)O1)C2 (centres unmarked) [Example 351, 6-[5-[2-[[4-Fluoro-6-(2-hydroxypropoxy)-2,3-dihydro-1H-inden-2-yl]methylamino]ethyl]-2-oxo-1,3-oxazolidin-3-yl]-4H-pyrazino[2,3-b][1,4]oxazin-3-one; hydrochloride]
